From US5424442A, “Water-soluble methine compounds useful in photographic silver halide emulsion containing the same” (Fuji Photo Film Co., Ltd., priority 1990, dated 1995)

Legend:
[1] = Spectral sensitization of photographic silver halide emulsion; parameters: Yellow filter sensitivity (SY) / Red filter sensitivity (SR): scale not given here; details: for Spectral sensitization performance (in words): added to emulsion as aqueous solution or aqueous dispersion; for Red filter sensitivity (SR): red filter SC-60, 5 seconds exposure; for Maximum Sensitization: spectrogram, tungsten light source of 2666° K.
Experimental: A silver halide emulsion comprising pure silver bromide and having a cubic crystal form (the area ratio of the plane to the entire surface area of grain being 92%) was prepared and subjected to a sulfur sensitization treatment. The average diameter of silver halide grains contained in the emulsion was 0.68 μm, and 0.74 mol of silver halide per kg of emulsion was contained in the emulsion. One kg of the emulsion was weighed in each of pots. An aqueous solution of each of the compounds of formula (I) indicated in Tables 4 and 5 was added to the pot, and the mixture was mixed with stirring at 40° C. For the purpose of comparison, comparative compounds 1 and 2 wherein counter ion was iodide were dispersed in water and added to respective pots.
Further, 4-hydroxy-6-methyl-1,3,3a,7-tetraazaindene in an amount of 0.1 g/kg of emulsion, sodium salt of 2,4-dichloro-6-hydroxy-1,3,5-triazine in an amount of 0.1 g/kg of emulsion and sodium dodecylbenzenesulfonate in an amount of 0.1 g/kg of emulsion in order were added thereto. The emulsion was then coated on a polyethylene terephthalate film to obtain a photographic material.
Each of these samples was exposed through an optical wedge for 5 seconds by using a yellow filter (SC-50, a product of Fuji Photo Film Co., Ltd.) or a red filter (SC-60, a product of Fuji Photo Film Co., Ltd.) and tungsten light (5400° K.).
A spectrogram was obtained by using a grating spectrograph having a tungsten light source of 2666° K., and the maximum sensitization was measured.
After exposure, the samples were developed at 20° C for 4 minutes by using the following developing solution. The density of each of the developed films was measured by using a densitometer (manufactured by Fuji Photo Film Co., Ltd. Spectral sensitivity, that is, yellow filter sensitivity (SY) or red filter sensitivity (SR), sensitivity (SB) in the sensitive region inherent in silver halide, and fog were determined. Sensitivity was determined when the standard point of optical density was referred to as (Fog+0.2). Composition of Developing Solution […]
Two volumes of water were added thereto to obtain a working solution when used.

[2] = Solubility in solvents (dissolution in incubator, filtration through microfilter, visible absorption); type: physicochemical; details: water
Text: The solubility of some of the compounds within formula (I) was accurately measured.
The measurement of solubility was made in the following manner.

[3] = standard point Fog+0.2, Table 5

| Compound | Spectral sensitization performance (in words) [1] | Red filter sensitivity (SR) [1, 3] | Maximum Sensitization ([1]; Table 5) | Water solubility (in words) [2] | solubility at 12 h ([2]; Table 3, read-out: Solubility in Water) | Maximum Sensitization ([1]; Table 4) | Yellow filter sensitivity (SY) ([1]; yellow filter SC-50, 5 seconds exposure, standard point Fog+0.2, Table 4) |
| --- | --- | --- | --- | --- | --- | --- | --- |
| CCn1c(=CC2=CC(=Cc3sc4cc(C)c(C)cc4[n+]3CC)CC(C)(C)C2)sc(=C2Sc3ccccc3N2C)c1=O [Comparative Compound 2, reference compound] | the desired spectral sensitivity cannot be obtained | 100 | 747 nm | low solubility in water |  |  |  |
| CCn1c(=CC2=CC(=Cc3sc4ccccc4[n+]3CC)Oc3ccccc32)sc(=C2Sc3ccc(OC)cc3N2C)c1=O [Compound 150] |  | 905 | 695 nm |  | 2100 µg/mL |  |  |
| CCN1C(=CC=c2sc(=Cc3sc(-c4ccccc4)c(-c4ccccc4)[n+]3CC)n(CC)c2=O)Sc2ccccc21 [Comparative Compound 1, reference compound] | the desired spectral sensitivity cannot be obtained |  |  | low solubility in water |  | 638 nm | 100 |
